Read-outs that look alike come from different tables or passages of the source.
Assays:
Staphylococcus aureus = experiment: Bacteriostasis/sterilization test (plate count); type: cell-based; conditions: for inhibition rate: concentration 0.035 mM; for IC50: read-out: half inhibition concentration; for inhibition at 35 µM: read-out: Inhibition rate (%); for inhibition at 9 µM: concentration 0.009 mM, read-out: inhibition rate
[1] = mouse, in vivo, po
VERO E6 cells = experiment: Cytotoxicity (CCK-8) on VERO E6 cells
HIV pseudovirus = type: cell-based, HIV pseudovirus HIV18A-41
Klebsiella pneumoniae = experiment: Bacteriostasis/sterilization test (plate count); type: cell-based; conditions: for inhibition at 35 µM: Klebsiella pneumoniae, read-out: Inhibition rate (%)
SARS-CoV-2 pseudovirus [2] = type: cell-based, SARS-CoV-2 pseudovirus B.1.526.2
Escherichia coli = experiment: Bacteriostasis/sterilization test (plate count); type: cell-based; conditions: for inhibition at 35 µM: Escherichia coli, read-out: Inhibition rate (%)
H7N9 pseudovirus = type: cell-based, Influenza pseudovirus H7N9-Fluc
H5N1 pseudovirus = type: cell-based, Influenza pseudovirus H5N1-Fluc
Pseudomonas aeruginosa = experiment: Bacteriostasis/sterilization test (plate count); type: cell-based; conditions: for inhibition at 35 µM: Pseudomonas aeruginosa, read-out: Inhibition rate (%)
Streptococcus pneumoniae = experiment: Bacteriostasis/sterilization test (plate count); type: cell-based; conditions: for inhibition at 35 µM: Streptococcus pneumoniae, read-out: Inhibition rate (%)
SARS-CoV-2 pseudovirus [3] = test system: SARS-CoV-2 pseudovirus; set-up: species or system SARS-CoV-2 pseudovirus B.1.526.2
[4] = test system: Methicillin-resistant Staphylococcus aureus; experiment: Bacteriostasis/sterilization test (plate count); type: cell-based; conditions: 0.035 mM (Table 25)
Neocopyovirus = type: in vivo; conditions: 1 mM; n=3
[5] = test system: influenza pseudovirus H7N9-Fluc; experiment: microbe, parasite or virus in culture; type: cell-based; conditions: n=3
HIV pseudovirus (18A-41) = type: cell-based; conditions: 293T cells pretreated 4 h, n=3
[6] = Staphylococcus aureus, 0.035 mM (Table 25)

Row | Molecule | inhibition rate (Staphylococcus aureus) | IC50 (Staphylococcus aureus) [µM] | liver, heart, kidney, bone/hepatobiliary function in blood versus control group [1] | physiological state, body weight, fur color, food consumption, mental state versus control group [1] | Sterilization rate (%) (HIV pseudovirus) | inhibition at 35 µM (Klebsiella pneumoniae) [%] | inhibition at 35 µM (Staphylococcus aureus; [6]) [%] | inhibition at 9 µM (Staphylococcus aureus; Staphylococcus aureus) [%] | IC50 (Staphylococcus aureus; Staphylococcus aureus) [µM] | Sterilization rate (%) (SARS-CoV-2 pseudovirus [2]) | inhibition at 35 µM (Escherichia coli) [%] | Sterilization rate (%) (H7N9 pseudovirus) | Sterilization rate (%) (H5N1 pseudovirus) | inhibition at 35 µM (Pseudomonas aeruginosa) [%] | effect of the complex on cells (VERO E6 cells; 9 mM to 0.035 mM) | inhibition at 35 µM (Streptococcus pneumoniae) [%] | Fluorescence intensity (Neocopyovirus) | other results
1 | CCCCCCCC/C=C\CCCCCCCC(=O)NCCCCC(N)C(=O)O (stereo not drawn) | greater than 99% | 9 | no difference | not significantly different | – | – | – | – | – | – | – | – | – | – | – | – | – | effect of the complex on cells (VERO E6 cells; […] to 0.035 mM): less than 1%
2 | CCCCCCCCN(C)C[C@H](O)[C@@H](O)[C@H](O)[C@H](O)CO [N-octyl-N-methylglucamine] | – | – | no difference | not significantly different | 99 | 99 | 99 | > 99 | 3 | 99 | 99 | 99 | 99 | 99 | less than 10% | 99 | – | –
3 | CCCCCCCC(=O)OC(C)C(N)C(=O)O (stereo not drawn) | greater than 99% | 9 | – | – | 99 | – | – | – | – | 99 | – | 99 | 99 | – | – | – | – | Inhibition rate (%) (Klebsiella pneumoniae; 0.035 mM (Table 25)): 99%; Inhibition rate (%) (Staphylococcus aureus; 0.035 mM (Table 25)): 99%; Inhibition rate (%) (Escherichia coli; 0.035 mM (Table 25)): 99%; membrane structure of the virus (TEM) (SARS-CoV-2 pseudovirus [3]): broken; Inhibition rate (%) (Pseudomonas aeruginosa; 0.035 mM (Table 25)): 99%; Inhibition rate (%) [4]: 99%; Inhibition rate (%) (Streptococcus pneumoniae; 0.035 mM (Table 25)): 99%
4 | CCCCCCCCCN(C)C[C@H](O)[C@@H](O)[C@H](O)[C@H](O)CO [N-nonyl-N-methylglucamine] | – | – | no difference | not significantly different | 99 | 99 | 99 | > 99 | 3 | 99 | 99 | 99 | 99 | 99 | less than 10% | 99 | – | –
5 | Glucosamine-erucic acid | – | – | – | – | – | – | – | – | – | – | – | – | – | – | – | – | 6.8 ± 0.49 | Inhibition rate (%) ([5]; 2 nM): 50.54 ± 3.54%; Inhibition rate (%) ([5]; 5 nM): 39.66 ± 3.66%; Inhibition rate (%) ([5]; 10 nM): 48.04 ± 7.56%; Inhibition rate (%) ([5]; 50 nM): 47.33 ± 4.56%; Inhibition rate (%) ([5]; 100 nM): 53.86 ± 3.98%; Inhibition rate (%) ([5]; 1 μM): 12.07 ± 2.65%; Inhibition rate (%) ([5]; 10 μM): 54.05 ± 5.05%; Inhibition rate (%) ([5]; 50 μM): 91.44 ± 4.48%; Inhibition rate (%) ([5]; 100 μM): 99.78 ± 5.64%
6 | Threonine-tetracosanoic acid | – | – | – | – | – | – | – | – | – | – | – | – | – | – | – | – | 2.9 ± 0.11 | Inhibition rate (%) (HIV pseudovirus (18A-41); 2 nM): 81.01 ± 5.26%; Inhibition rate (%) (HIV pseudovirus (18A-41); 5 nM): 92.25 ± 5.03%; Inhibition rate (%) (HIV pseudovirus (18A-41); 10 nM): 94.06 ± 6.46%; Inhibition rate (%) (HIV pseudovirus (18A-41); 50 nM): 99.01 ± 6.33%; Inhibition rate (%) (HIV pseudovirus (18A-41); 100 nM): 98.64 ± 5.77%; Inhibition rate (%) (HIV pseudovirus (18A-41); 1 μM): -42.03 ± 3.83%; Inhibition rate (%) (HIV pseudovirus (18A-41); 10 μM): -64.26 ± 6.54%; Inhibition rate (%) (HIV pseudovirus (18A-41); 50 μM): 81.96 ± 6.75%; Inhibition rate (%) (HIV pseudovirus (18A-41); 100 μM, negative value = promotes infection): 83.84 ± 3.84%

Source: patent US20260166162A1, “CARBON CHAIN SUBSTANCE FOR REGULATING TRANSMEMBRANE TRANSPORT AND FLUIDITY OF CELL MEMBRANES, AND PREPARATION AND USE THEREOF” (priority 2022, published 2026)
